The source of these data is patent US11584800B2, “Method of treating cancer comprising administration of anti-HER2 antibody-drug conjugate” (DAIICHI SANKYO COMPANY, LIMITED, priority 2014, dated 2023).

Data set [1] is described as follows: Self-degradation of aminal structure of released drug derivative. Type of data set: physicochemical.
For data set [2], the system named is breast cancer ST225 tumor moderately expressing HER2. Nature of the data set: Antitumor test (6), patient-derived breast cancer ST225 in nude mice. Type of data set: in vivo, nude mouse. The settings on record: 10 mg/kg intravenously on Day 0; HER2 score 2+; FIG. 8. The procedure: (§1) Assay and calculation expression: The major axis and minor axis of tumor were measured twice a week by using an electronic digital caliper, and the tumor volume (mm^3) was calculated. The calculation expression is as shown below.

The test system of data set [3] is bile duct cancer CTG-0927 tumor highly expressing HER2. Nature of the data set: Antitumor test (10), patient-derived bile duct cancer CTG-0927 in nude mice. Type of data set: in vivo, nude mouse. The settings on record: 10 mg/kg intravenously on Day 0; HER2 score 3+; FIG. 12. Here is the method:
as §1

For data set [4], the system named is Human ovarian cancer line SK-OV-3 cells highly expressing HER2. Nature of the data set: Antitumor test (12), SK-OV-3 solid tumor in nude mice. It is filed as in vivo, nude mouse. The settings on record: 10 mg/kg intravenously on Day 0, FIG. 14.
Description: (§2) Assay and calculation expression: In all studies, the major axis and minor axis of a tumor were measured twice a week by using an electronic digital caliper (CD-15CX, Mitutoyo Corp.), and the tumor volume (mm^3) was calculated. The calculation expression is as shown below. Tumor volume(mm^3)=½×Major axis (mm)×[Minor axis (mm)]^2
(§3) All of the antibody-drug conjugates and the antibody were diluted with physiological saline (Otsuka Pharmaceutical Factory, Inc.) and used at a volume of 10 mL/kg for intravenous administration to the tail vein of each mouse.
Human ovarian cancer line SK-OV-3 cells highly expressing HER2 purchased from ATCC were suspended in physiological saline, and 4×10^7 cells were subcutaneously transplanted to the right side of the body of each female nude mouse to prepare SK-OV-3 solid tumor. Thereafter, this solid tumor was maintained at several passages by transplantation to female nude mice and used in this test. […]
Data set [5] relates to esophageal cancer CTG-0137 tumor highly expressing HER2. As to the kind of experiment: Antitumor test (11), patient-derived esophageal cancer CTG-0137 in nude mice. Type of data set: in vivo, nude mouse. The settings on record: 10 mg/kg intravenously on Day 0; HER2 score 3+; FIG. 13. Here is the method:
as §1

Data set [6] concerns Human pancreatic cancer line Capan-1 cells weakly expressing HER2. As to the kind of experiment: Antitumor test (4), Capan-1 solid tumor in nude mice. It is filed as in vivo, nude mouse. As to conditions: 10 mg/kg intravenously on Day 20; tumor with low HER2 expression; FIG. 6.
Description: as §2, §3
Human pancreatic cancer line Capan-1 cells (ATCC) weakly expressing HER2 were suspended in physiological saline, and 4×10^7 cells were subcutaneously transplanted to the right side of the body of each female nude mouse to generate Capan-1 solid tumor. Thereafter, this solid tumor was maintained at several passages by transplantation to female nude mice and used in this test. […]
Data set [7] deals with colorectal cancer CTG-0401 tumor low or moderately expressing HER2. Nature of the data set: Antitumor test (8), patient-derived colorectal cancer CTG-0401 in nude mice. As to conditions: 10 mg/kg intravenously on Day 0; HER2 score 1+ or 2+; FIG. 10. It is filed as in vivo, nude mouse. Here is the method:
as §1

Data set [8] relates to Human gastric cancer line NCI-N87 cells. As to the kind of experiment: Antitumor test (2), NCI-N87 subcutaneous transplant in nude mice. It is filed as in vivo, nude mouse. The settings on record: 10 mg/kg intravenously on Day 7; FIG. 4. The procedure: Mouse: 5- to 6-week-old female nude mice (Charles River Laboratories Japan, Inc.) were acclimatized for 4 to 7 days under SPF conditions before use in the experiment. The mice were fed with sterilized solid feed (FR-2, Funabashi Farms Co., Ltd) and given sterilized tap water (prepared by the addition of 5 to 15 ppm sodium hypochlorite solution). Assay and calculation expression: In all studies, the major axis and minor axis of a tumor were measured twice a week by using an electronic digital caliper ([…] Corp.), and the tumor volume (mm^3) was calculated. The calculation expression is as shown below. […] Human gastric cancer line NCI-N87 cells purchased from ATCC (American Type Culture Collection) were suspended in physiological saline, and 1×10^7 cells were subcutaneously transplanted to the right side of the body of each female nude mouse (Day 0), and the mice were randomly grouped on Day 7. […] An untreated group was established as a control group.

Data set [9] has as its system breast cancer ST910 tumor low expressing HER2. Nature of the data set: Antitumor test (7), patient-derived breast cancer ST910 in nude mice. Type of data set: in vivo, nude mouse. As to conditions: 10 mg/kg intravenously on Day 0; HER2 score 1+; FIG. 9. Here is the method: as §1
The test system of data set [10] is non-small cell lung cancer CTG-0860 tumor moderately expressing HER2. Nature of the data set: Antitumor test (9), patient-derived non-small cell lung cancer CTG-0860 in nude mice. It is filed as in vivo, nude mouse. As to conditions: 10 mg/kg intravenously on Day 0; HER2 score 2+; FIG. 11. The procedure:
as §1

Data set [11] has as its system Human breast cancer line JIMT-1 cells. As to the kind of experiment: Antitumor test (3), JIMT-1 subcutaneous transplant in nude mice. It is filed as in vivo, nude mouse. As to conditions: 10 mg/kg intravenously on Days 12 and 19; FIG. 5.
Description: as §2, §3
Human breast cancer line JIMT-1 cells purchased from DSMZ (Deutsche Sammlung von Mikroorganismen und Zellkulturen GmbH) were suspended in physiological saline, and 3×10^6 cells were subcutaneously transplanted to the right side of the body of each female nude mouse (Day 0), and the mice were randomly grouped on Day 12. […] A physiological saline administration group was established as a control group.

Consider `CC[C@@]1(O)C(=O)OCc2c1cc1n(c2=O)Cc2c-1nc1cc(F)c(C)c3c1c2[C@@H](NC(=O)COCN)CC3` [NH2—CH2—O—CH2—C(═O)—(NH-DX)], for which the “stability of the aminal structure; releases HO—CH2—C(═O)—(NH-DX)” value in data set [1] is on record as “undergoes a self-degradation”.
On to trastuzumab emtansine, for which the “growth of the breast cancer ST225 tumor (tumor volume)” value in data set [2] is listed as “remarkably inhibited the growth of the tumor”. For the same molecule, the “growth of the bile duct cancer CTG-0927 tumor (tumor volume)” value in data set [3] is recorded as “inhibited the growth of the tumor”. The “growth of the SK-OV-3 tumor (tumor volume)” value in [4] is reported as “remarkably inhibited the growth of the tumor”. Also, the “growth of the esophageal cancer CTG-0137 tumor (tumor volume)” value in data set [5] was “remarkably inhibited the growth of the tumor”. For the same molecule, in [6], the “growth of the Capan-1 tumor (tumor volume)” value was “did not inhibit the growth of the Capan-1 tumor”. In [7], the “growth of the colorectal cancer CTG-0401 tumor (tumor volume)” value is listed as “did not inhibit the growth”. The “antitumor effect (tumor volume), NCI-N87” value in data set [8] was “tumor regression”. Moreover, in data set [9], the “growth of the breast cancer ST910 tumor (tumor volume)” value is recorded as “did not inhibit the growth”. Further, the “growth of the non-small cell lung cancer CTG-0860 tumor (tumor volume)” value in data set [10] is reported as “did not inhibit the growth”. Besides, in [11], the “growth of the JIMT-1 tumor (tumor volume)” value is recorded as “did not inhibit the growth of the JIMT-1 tumor”.
